From patent publication EP0054589B1, “Organic phosphoric acid ester derivatives, a process for preparing the same and insecticidal, miticidal or nematocidal compositions containing the same” (priority 1980, dated 1982)
Where two headings read alike, the source gives them in different places.

What was measured:
rice stem borer = experiment: Insecticidal effect on rice stem borer, 3rd-instar larvae (rice seedling dip); format: in vivo, Chilo suppressalis; conditions: after 72 hours, 25°C
Procedure, shortened: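 Wettable-powder formulations were diluted in water to set concentrations, and rice seedlings were dipped in them. Ten 3rd-instar larvae were placed per capped cup with the treated seedlings and held at 25°C.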

tobacco cutworm [1] = experiment: Insecticidal effect on tobacco cutworm (cabbage leaf dip); format: in vivo, Prodenia litura; conditions: after 48 hours, 25°C
Procedure, shortened: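 Cabbage leaves dipped in water-diluted emulsifiable concentrate (two formulations, tests A and B) and air-dried were fed to 3rd-instar tobacco cutworm larvae at 25°C. Percent mortality scored after 48 hours; 3 replicates of 30 insects per compound.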

diamond back moth = experiment: Insecticidal effect on diamond-back moth (cabbage leaf dip); format: in vivo, Plutella xylostella; conditions: 100 ppm, after 72 hours, 25°C
Protocol: (§1) (A) An emulsifiable concentrate prepared as described in Formulation Example 1 was diluted with water to a predetermined concentration and leaves of a cabbage were dipped into the dilute emulsion for 10 seconds followed by drying in air, and charged in a 60 ml volume cup made of vinyl chloride resin. Then, thirty 3rd-instar larvae of diamond back moth were put in each cup, and the cups were kept at 25°C. After 72 hours, percent mortality was assessed and the test was replicated 3 times for each treatment.
as §1, with “(B) An” for “(A) An”, “Example 4” for “Example 1”

smaller tea tortrix = experiment: Insecticidal effect on smaller tea tortrix (apple leaf dip); format: in vivo; conditions: Adoxophyes orana, foliar; Table 9; 100 ppm; after 72 hours, 25°C; wettable powder as Formulation Example 5; read-out: Percent Mortality
Protocol: Leaves of an apple tree were dipped into a dilute water suspension of a wettable powder prepared as described in Formulation Example 5. After drying in air, the leaves were charged in a 60 ml volume cup made of vinyl chloride resin, and […] 3rd-instar larvae of smaller tea tortrix were put in each cup. The cups were capped and kept at 25°C. After 72 hours, the number of the surviving insects and the dead insects were recorded to determine percent mortality. In each treatment, 3 cups and 30 insects were used in total.

apple leaf miner = experiment: Insecticidal effect on apple leaf miner (sprayed apple seedling); format: in vivo, Lithocolletis ringoniella; conditions: Phyllonorycter ringoniella, 336 h, 500 ppm, fourteen days after spraying
Protocol: (§2) (A) A dilute water suspension of a wettable powder prepared as described in Formulation Example 5 was sufficiently sprayed using a spray-gun on a seedling of an apple tree planted in a bisque flower pot to which plant larvae of apple leaf miner just after hatching were parasitic. Thereafter the pots were placed in a green house. Fourteen days after the spraying, bores made by larvae were broken and percent mortality was assessed for all the leaves of each seedling. Three pots were used for each treatment.
as §2, with “(B)” for “(A)”, “7” for “5”

Apple = experiment: Phytotoxicity on various crops; format: in vivo; set-up: key: Symbol — indicates that no toxicity was observed; conditions: 500 ppm sprayed; checked visually after 10 days
Procedure, shortened: (§3)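 Damage is judged visually 10 days after foliar spraying. Each compound is applied as a water-diluted emulsifiable concentrate at 500 ppm effective ingredient, with plants kept in a greenhouse and three replicates run.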

Beet = experiment: Phytotoxicity on various crops; format: in vivo; set-up: key: Symbol — indicates that no toxicity was observed; conditions: 500 ppm sprayed; checked visually after 10 days
Procedure, shortened: as §3

Cabbage = experiment: Phytotoxicity on various crops; format: in vivo; set-up: key: Symbol — indicates that no toxicity was observed; conditions: 500 ppm sprayed; checked visually after 10 days
Procedure, shortened: as §3

Cotton = experiment: Phytotoxicity on various crops; format: in vivo; set-up: key: Symbol — indicates that no toxicity was observed; conditions: 500 ppm sprayed; checked visually after 10 days
Procedure, shortened: as §3

Cucumber = experiment: Phytotoxicity on various crops; format: in vivo; set-up: key: Symbol — indicates that no toxicity was observed; conditions: 500 ppm sprayed; checked visually after 10 days
Procedure, shortened: as §3

Green Pepper = experiment: Phytotoxicity on various crops; format: in vivo; set-up: key: Symbol — indicates that no toxicity was observed; conditions: 500 ppm sprayed; checked visually after 10 days
Procedure, shortened: as §3

Kidney Bean = experiment: Phytotoxicity on various crops; format: in vivo; set-up: key: Symbol — indicates that no toxicity was observed; conditions: 500 ppm sprayed; checked visually after 10 days
Procedure, shortened: as §3

Rice = experiment: Phytotoxicity on various crops; format: in vivo; set-up: key: Symbol — indicates that no toxicity was observed; conditions: 500 ppm sprayed; checked visually after 10 days
Procedure, shortened: as §3

Tea = experiment: Phytotoxicity on various crops; format: in vivo; set-up: key: Symbol — indicates that no toxicity was observed; conditions: 500 ppm sprayed; checked visually after 10 days
Procedure, shortened: as §3

Tomato = experiment: Phytotoxicity on various crops; format: in vivo; set-up: key: Symbol — indicates that no toxicity was observed; conditions: 500 ppm sprayed; checked visually after 10 days
Procedure, shortened: as §3

egg plant = experiment: Phytotoxicity on various crops; format: in vivo; set-up: key: Symbol — indicates that no toxicity was observed; conditions: 500 ppm sprayed; checked visually after 10 days
Procedure, shortened: as §3

tobacco cutworm [2] = experiment: Long-lasting insecticidal effect on tobacco cutworm (sprayed cabbage plantlet); format: in vivo, Prodenia litura; conditions: concentration 500 (unit not given), mortality after 48 hours; for Percent Mortality After Application 3rd Day: leaves cut on 3rd day; for Percent Mortality After Application 5th Day: leaves cut on 5th day; for Percent Mortality After Application 7th Day: leaves cut on 7th day; for Percent Mortality After Application 10th Day: leaves cut on 10th day; for Percent Mortality After Application 15th Day: leaves cut on 15th day
Procedure, shortened: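 Cabbage plantlets sprayed with water-diluted emulsifiable concentrate and held in a greenhouse; leaves cut on days 3, 5, 7, 10 and 15 and fed to 3rd-instar larvae at 25°C. Percent mortality scored after 48 h; 3 replicates, 30 insects each.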

[3] = Table 1, 100 ppm, wettable powder as Formulation Example 5
[4] = Table 1, 500 ppm, wettable powder as Formulation Example 5
[5] = Table 2, 100 ppm, wettable powder as Formulation Example 7
[6] = Table 3, 500 ppm, emulsifiable concentrate as Formulation Example 1
[7] = Table 4, 100 ppm, emulsifiable concentrate as Formulation Example 3
[8] = Table 7, emulsifiable concentrate as Formulation Example 1
[9] = Table 8, emulsifiable concentrate as Formulation Example 4
[10] = Table 10, wettable powder as Formulation Example 5, read-out: Percent Morality (%)

Row | SMILES | Percent Mortality (%) (rice stem borer; [3]) | Percent Mortality (%) (rice stem borer; [4]) | Percent Mortality (%) (rice stem borer; [5]) | Percent Mortality (%) (tobacco cutworm [1]; [6]) | Percent Mortality (%) (tobacco cutworm [1]; [7]) | Percent Mortality (%) (diamond back moth; [8]) | Percent Mortality (%) (diamond back moth; [9]) | mortality at 100 ppm (smaller tea tortrix) [%] | mortality at 500 ppm (apple leaf miner; [10]) [%] | Phytotoxicity: Apple (Apple) | Phytotoxicity: Beet (Beet) | Phytotoxicity: Cabbage (Cabbage) | Phytotoxicity: Cotton (Cotton) | Phytotoxicity: Cucumber (Cucumber) | Phytotoxicity: Green Pepper (Green Pepper) | Phytotoxicity: Kidney Bean (Kidney Bean) | Phytotoxicity: Rice (Rice) | Phytotoxicity: Tea (Tea) | Phytotoxicity: Tomato (Tomato) | Phytotoxicity: Egg Plant (egg plant) | also measured
1 | CCOP(=O)(Oc1cccc2c1C(C)=CC(C)(C)O2)SC(C)CC (centres unmarked) [compound 23] | 100 | 100 | 100 | 100 | 100 | 100 | 100 | 100 | 100 | — | — | — | — | — | — | — | — | — | — | — | mortality at 500 ppm (apple leaf miner; Table 11, wettable powder as Formulation Example 7, read-out: Percent Mortality (%)): 100%
2 | CCC(C)SP(=O)(OC)Oc1ccc2c(c1)OC(C)=CC2(C)C (centres unmarked) [Compound No. 16, O-methyl-S-sec-butyl-O-(2,4,4-trimethyl-1,4-benzopyran-7-yi) phosphorothioate] | 100 | 100 |  | 100 |  | 100 |  | 100 | 100 | — | — | — | — | — | — | — | — | — | — | — | Percent Mortality After Application 3rd Day (tobacco cutworm [2]; Table 5): 100%; Percent Mortality After Application 5th Day (tobacco cutworm [2]; Table 5): 100%; Percent Mortality After Application 7th Day (tobacco cutworm [2]; Table 5): 100%; Percent Mortality After Application 10th Day (tobacco cutworm [2]; Table 5): 100%; Percent Mortality After Application 15th Day (tobacco cutworm [2]; Table 5): 100%
3 | CCCSP(=O)(OCC)Oc1ccc2c(c1)OC(C)CC2(C)C (centres unmarked) [compound 17] | 100 | 100 | 100 | 100 | 100 | 100 | 100 | 100 |  | — | — | — | — | — | — | — | — | — | — | — | Percent Mortality After Application 3rd Day (tobacco cutworm [2]; Table 5): 100%; Percent Mortality After Application 5th Day (tobacco cutworm [2]; Table 5): 100%; Percent Mortality After Application 7th Day (tobacco cutworm [2]; Table 5): 100%; Percent Mortality After Application 10th Day (tobacco cutworm [2]; Table 5): 100%; Percent Mortality After Application 15th Day (tobacco cutworm [2]; Table 5): 53.3%; Percent Mortality After Application 3rd Day (tobacco cutworm [2]; Table 6): 100%; Percent Mortality After Application 5th Day (tobacco cutworm [2]; Table 6): 100%; Percent Mortality After Application 7th Day (tobacco cutworm [2]; Table 6): 100%; Percent Mortality After Application 10th Day (tobacco cutworm [2]; Table 6): 93.3%; Percent Mortality After Application 15th Day (tobacco cutworm [2]; Table 6): 30%; Percent Mortality After Application Immediately after Application (tobacco cutworm [2]; Table 6): 100%
4 | CCOP(=O)(Oc1ccc2c(c1)OC(C)(C)C=C2C)SC(C)CC (centres unmarked) [Compound No. 18] | 100 | 100 | 100 | 100 | 100 |  | 83.3 | 100 | 100 | — | — | — | — | — | — | — | — | — | — | — | 
